Measured values published in patent publication US20250228796A1, “SKELETAL MUSCLE ENHANCER” (SATO PHARMACEUTICAL CO., LTD., priority 2022, published 2025).

Columns and labels:
Assay type in all cases: in vivo, mouse
[1] = test system: Trim63 (MuRF1) mRNA expression; assay: Expression analysis of muscle atrophy-related gene Trim63 in muscle atrophy model; settings: 3 days
Description: (§1) Under the anesthesia with isoflurane, the left hindlimb of the mouse in a bent state was fixed with a surgical stapler (Kaiser Plus. KEISEI MEDICAL INDUSTRIAL CO., LTD.). The right hindlimb of the same mouse was assigned to the sham-treatment side, and no fixation treatment was performed. After 3 or 7 days of the start of fixation, the tibialis anterior muscle (one of skeletal muscles) was collected by dissection. The sample collected after 3 days was supplied to the expression analysis of the muscle atrophy-related genes, and the sample collected after 7 days was supplied to the measurement of a muscle weight and the preparation of a muscle tissue section.
(§2) The tibialis anterior muscle was homogenized with Sepasol-RNA I Super G (NACALAI TESQUE, INC.), 1-bromo-3-chloropropane was added thereto, the mixture was stirred, and further centrifuged, then RNA was extracted from the supernatant. The extracted RNA was recovered with 2-propanol and 75% ethanol, and then subjected to the reverse transcription reaction (using ReverTra Ace qPCR RT Master Mix (Toyobo Co., Ltd.) according to the attached protocol) to synthesize cDNA. The synthesized CDNA was subjected to the real-time PCR method (using Applied Biosystems 7500 Real-Time PCR System (Thermo Fisher Scientific)) to measure mRNA expression of three genes, Trim63 (MuRF1), myostatin (Mstn), and Gapdh. Primer sequences used are as follows.
(§3) The expression levels of mRNA of Trim63 and Mstn (mTrim63 and mMstn) were calculated as a ratio to the expression level of mRNA of Gapdh (mGapdh). […]
(§4) Spermidine trihydrochloride (SPD) was administered to muscle atrophy model animals by three administration routes, and the expression variations of muscle atrophy-related genes Trim63 and Mstn were measured. […]
(§5) The mRNA expression of Trim63 and Mstn in the tibialis anterior muscle of the left hindlimb (fixed: Staple) and the right hindlimb (sham treatment: Sham) collected after 3 days of the start of fixation was measured.

[2] = test system: tibialis anterior muscle of muscle atrophy model; assay: Muscle atrophy model (hindlimb fixation): muscle weight and muscle fiber cross-sectional area; settings: intramuscular
Description: (§6) Seven-week old C57BL/6 Male mice (CLEA Japan, Inc.) were purchased, and used for experiment at the age of 8 weeks.
A model animal to which muscle atrophy had been caused by a method of fixing a hindlimb (J Appl Physiol, vol. 106, pp. 2049-2059, 2009) was used.
as §1
(§7) Body weight of the mouse was measured before collecting the tibialis anterior muscle. Furthermore, the weight of the collected tibialis anterior muscle was measured. From these measured values, the ratio (%) of the skeletal muscle weight per body weight of the mouse (weight of tibialis anterior muscle/body weight of mouse) was calculated.
(§8) Immediately after the collection of the tibialis anterior muscle, the tibialis anterior muscle was immersed in isopentane cooled with liquid nitrogen and was rapidly frozen. The frozen muscle tissue was cut into slices each having a thickness of 10 μm by using a cryostat (Leica Biosystems), and the slice was attached onto an antistripping coated slide glass (Matsunami Glass Ind., Ltd.).
A muscle tissue section was sufficiently air dried for 30 minutes under room temperature. After that, the muscle tissue sections was fixed by immersing it in acetone cooled to −30° C. and treating at −30° C. for 20 minutes. The fixed sections was air dried once and washed with PBS. Then the section was blocked by dropwisely adding a blocking reagent (Blocking One. NACALAI TESQUE, INC.) to the section and subjected to the blocking treatment for 1 hour. Next, a primary antibody (Anti-laminin-2 (α-2 Chain) antibody Rat monoclonal (Sigma-Aldrich)) obtained by being diluted 500 times with a blocking reagent was added dropwise, and the reaction was conducted at overnight at 4° C. Since laminin to which a primary antibody binds is a protein expressed in the basement membranes of all muscle cells, the laminin was used in this experiment as an index in order to measure the area of individual muscle cells in a section. The muscle tissue section after the reaction with the primary antibody was washed with PBS, and then was reacted for 1 hour with a secondary antibody (CF 488A Goat Anti-Rat IgG (H+L) (Biotium)) obtained by being diluted 500 times with the blocking reagent. The secondary antibody that is an anti-rat antibody conjugated with a fluorescent dye binds to the primary antibody, and stains the laminin. […] Set with DAPI” (Vector), and then the fluorescence observation was performed with an inverted microscope FSX100 (Olympus).
The muscle fiber cross-sectional area was measured basis of the image data taken from the fluorescence observation. After the image data was taken into image analysis software ImageJ (NIH), the cross-sectional area of the individual cells were measured on the basis of the cell membrane stained with laminin. […]

[3] = test system: myostatin (Mstn) mRNA expression; assay: Expression analysis of muscle atrophy-related gene Mstn in muscle atrophy model; settings: 3 days
Description: as §1, §2, §3, §4, §5

[4] = test system: tibialis anterior muscle of muscle damage model (CTX); assay: Muscle damage model (cardiotoxin): muscle weight and regenerated muscle fiber cross-sectional area; settings: 7 days after CTX
Description: as §6
A model animal to which muscle damage had been caused by administion of snake venom cardiotoxin (CTX) was used. The model animal has been widely used in studies on regeneration from muscle damage.
Under the anesthesia with isoflurane, 50 μL of 10 μM CTX was administered to the tibialis anterior muscle of the right hindlimb of the mouse. Fifty μL of a phosphate buffer (PBS) was administered as a Vehicle to the tibialis anterior muscle of left hindlimb of the same mouse. After 7 days of the administration of CTX, the tibialis anterior muscle was collected by dissection, and supplied to the measurement of muscle weight and preparation of a muscle tissue section.
as §7, §8
A muscle tissue section was sufficiently air dried for 30 minutes under room temperature. After that, the muscle tissue sections was fixed by immersing it in acetone cooled to −30° C. and treating at −30° C. for 20 minutes. The fixed sections was air dried once and washed with PBS. Then the section was blocked by dropwisely adding a blocking reagent (Blocking One. NACALAI TESQUE, INC.) to the section and subjected to the blocking treatment for 1 hour. Next, a primary antibody (Anti-laminin-2 (α-2 Chain) antibody Rat monoclonal (Sigma-Aldrich)) obtained by being diluted 500 times with a blocking reagent was added dropwise, and the reaction was conducted at overnight at 4° C. Since laminin to which a primary antibody binds is a protein expressed in the basement membranes of all muscle cells, the laminin was used in this experiment as an index in order to measure the area of individual muscle cells in a section. The muscle tissue section after the reaction with the primary antibody was washed with PBS, and then was reacted for 1 hour with a secondary antibody (CF 488A Goat Anti-Rat IgG (H+L) (Biotium)) obtained by being diluted 500 times with the blocking reagent. The secondary antibody that is an anti-rat antibody conjugated with a fluorescent dye binds to the primary antibody, and stains the laminin. The muscle tissue sections after the reaction with the secondary antibody was washed with PBS, and sealed by using “VECTASHIELD Hard. Set with DAPI” (Vector), and then the fluorescence observation was performed with an inverted microscope FSX100 (Olympus).
The muscle fiber cross-sectional area was measured basis of the image data taken from the fluorescence observation. After the image data was taken into image analysis software ImageJ (NIH), the cross-sectional area of the individual cells were measured on the basis of the cell membrane stained with laminin. For the area measurement, “Analyze Particles” that is an add-in analysis program on ImageJ was used. The measurement results were shown as a distribution chart (histogram) of the areas and number of single-muscle fibers, and as an average value of the cross-sectional areas of all the single muscle fibers (mean muscle fiber area).
In the muscle damage model (Example 3), the regenerated muscle was used as a measurement target. […]

[5] = intraperitoneal, 19.6 mM 10 mL/kg once a day

## Cl.Cl.Cl.NCCCCNCCCN [SPD, Spermidine trihydrochloride]
[1]; intramuscular, 196 mM 10 μL once a day, fixed left hindlimb (Staple), *P<0.05
  Trim63 expression suppression (reduction vs Staple, Vehicle): 65.6%
[1]; intraperitoneal, 19.6 mM 10 mL/kg once a day, Staple
  Trim63 expression suppression (reduction vs Staple, Vehicle): 42.3%
[1]; oral, 30 mM in drinking water
  Trim63 expression suppression: no expression suppression
[2]; 196 mM 10 μL once a day, 7 days, **P<0.01
  muscle weight loss due to hindlimb fixation: significant suppression
[2]; 196 mM 10 μL once a day, left hindlimb (fixed: Staple), 7 days after start of fixation
  muscle weight vs Vehicle administration group: significant increase
[2]; 196 mM 10 μL once a day, right hindlimb (sham treatment: Sham), 7 days after start of fixation
  muscle weight vs Vehicle administration group: significant increase
[2]; 7 days after start of fixation, ***P<0.001
  mean muscle fiber area vs Vehicle: significant increase
[2]; 7 days after start of fixation, whole muscle
  histogram of single-muscle fiber area vs Vehicle: shifted to the right side
[3]; intramuscular, 196 mM 10 μL once a day, Staple, **P<0.01
  Mstn expression suppression (reduction vs Staple, Vehicle): 61.1%
[3]; [5]
  Mstn expression suppression: did not show significant expression suppression
[3]; oral, 30 mM in drinking water
  Mstn expression suppression: did not show significant expression suppression
[4]; intramuscular, 196 mM 10 μL once a day
  suppression of muscle weight loss by CTX: remarkable suppression
[4]; intramuscular
  histogram of regenerated single-muscle fiber area vs Vehicle: shifted to the right side
[4]; intramuscular, ***P<0.001
  mean muscle fiber area (regenerated muscle) vs Vehicle: significant increase
[4]; [5]
  suppression of muscle weight loss by CTX: a significant suppression was not observed
[4]; intraperitoneal
  histogram of regenerated single-muscle fiber area vs Vehicle: no shift
  mean muscle fiber area (regenerated muscle) vs Vehicle: no significant increase
[4]; oral, 30 mM in drinking water
  suppression of muscle weight loss by CTX: a significant suppression was not observed
[4]; oral
  histogram of regenerated single-muscle fiber area vs Vehicle: no shift
  mean muscle fiber area (regenerated muscle) vs Vehicle: no significant increase
